Test results reported in the NIST ThermoML archive (doi:10.1021/acs.jced.9b00068).
Numbers after ± are expanded uncertainties.

Legend:
[1] = Liquid; for mass density: 298.15 K, 101.33 kPa, Vibrating tube method; for vapor or sublimation pressure: Ebulliometric method (Recirculating still)
[2] = refractive index (Na D-line) (dimensionless); details: 298.15 K; 101.33 kPa; Liquid; Standard Abbe refractometry

SMILES | mass density [1] [kg/m3] | vapor or sublimation pressure ([1]; 399.6 K) [kPa] | refractive index [2] | vapor or sublimation pressure ([1]; 362.5 K) [kPa] | vapor or sublimation pressure ([1]; 337.5 K) [kPa] | vapor or sublimation pressure ([1]; 330.2 K) [kPa] | vapor or sublimation pressure ([1]; 421.6 K) [kPa] | vapor or sublimation pressure ([1]; 373.8 K) [kPa]
CCOC(=O)OCC [diethyl carbonate] | 969.4 ± 0.2 | 100.17 ± 2 | 1.3821 ± 0.0004 | – | – | – | – | –
CCCCCOC(C)=O [pentyl ethanoate] | 872.3 ± 0.2 | – | 1.3999 ± 0.0004 | – | – | – | 100.17 ± 2 | –
CCCOC(C)=O [propyl ethanoate] | 882.9 ± 0.2 | – | 1.3815 ± 0.0004 | – | – | – | – | 100.17 ± 2

The next lines start with the values.

mass density [1] [kg/m3] | vapor or sublimation pressure ([1]; 399.6 K) [kPa] | refractive index [2] | vapor or sublimation pressure ([1]; 362.5 K) [kPa] | vapor or sublimation pressure ([1]; 337.5 K) [kPa] | vapor or sublimation pressure ([1]; 330.2 K) [kPa] | vapor or sublimation pressure ([1]; 421.6 K) [kPa] | vapor or sublimation pressure ([1]; 373.8 K) [kPa] | SMILES
1062.7 ± 0.2 | – | 1.3664 ± 0.0004 | 100.17 ± 2 | – | – | – | – | COC(=O)OC [dimethyl carbonate]
787.7 ± 0.2 | – | 1.3275 ± 0.0004 | – | 100.17 ± 2 | – | – | – | CO [methanol]
927.4 ± 0.2 | – | 1.3587 ± 0.0004 | – | – | 100.17 ± 2 | – | – | COC(C)=O [methyl ethanoate]
